Laboratory results taken from ChEMBL document CHEMBL1142734, “Biological properties of D- and L-1-deoxyazasugars” (J Med Chem, 2005).

Experiments:
[1] = target: T1, Tissue alpha-L-fucosidase (Bos taurus, UniProt Q2KIM0); experiment: Inhibitory concentration against bovine alpha-L-fucosidase
T1 sequence (Q2KIM0 whole entry): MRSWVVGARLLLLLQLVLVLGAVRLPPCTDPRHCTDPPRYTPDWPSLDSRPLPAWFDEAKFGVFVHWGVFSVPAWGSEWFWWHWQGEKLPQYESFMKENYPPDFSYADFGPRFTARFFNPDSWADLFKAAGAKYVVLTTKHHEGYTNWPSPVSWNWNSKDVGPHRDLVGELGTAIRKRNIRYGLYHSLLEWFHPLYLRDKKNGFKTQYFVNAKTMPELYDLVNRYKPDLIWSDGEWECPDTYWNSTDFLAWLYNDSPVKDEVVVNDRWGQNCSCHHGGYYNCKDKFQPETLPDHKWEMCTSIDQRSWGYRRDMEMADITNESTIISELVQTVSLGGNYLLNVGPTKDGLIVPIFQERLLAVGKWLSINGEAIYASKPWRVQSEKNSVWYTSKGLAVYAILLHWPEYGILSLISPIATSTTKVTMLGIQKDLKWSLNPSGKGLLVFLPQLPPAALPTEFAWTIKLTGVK

Alpha-galactosidase C = target: T2, Alpha-galactosidase C (Aspergillus niger, UniProt Q9UUZ4); experiment: Inhibitory concentration against alpha-galactosidase of Aspergillus niger
T2 sequence (Q9UUZ4 whole entry): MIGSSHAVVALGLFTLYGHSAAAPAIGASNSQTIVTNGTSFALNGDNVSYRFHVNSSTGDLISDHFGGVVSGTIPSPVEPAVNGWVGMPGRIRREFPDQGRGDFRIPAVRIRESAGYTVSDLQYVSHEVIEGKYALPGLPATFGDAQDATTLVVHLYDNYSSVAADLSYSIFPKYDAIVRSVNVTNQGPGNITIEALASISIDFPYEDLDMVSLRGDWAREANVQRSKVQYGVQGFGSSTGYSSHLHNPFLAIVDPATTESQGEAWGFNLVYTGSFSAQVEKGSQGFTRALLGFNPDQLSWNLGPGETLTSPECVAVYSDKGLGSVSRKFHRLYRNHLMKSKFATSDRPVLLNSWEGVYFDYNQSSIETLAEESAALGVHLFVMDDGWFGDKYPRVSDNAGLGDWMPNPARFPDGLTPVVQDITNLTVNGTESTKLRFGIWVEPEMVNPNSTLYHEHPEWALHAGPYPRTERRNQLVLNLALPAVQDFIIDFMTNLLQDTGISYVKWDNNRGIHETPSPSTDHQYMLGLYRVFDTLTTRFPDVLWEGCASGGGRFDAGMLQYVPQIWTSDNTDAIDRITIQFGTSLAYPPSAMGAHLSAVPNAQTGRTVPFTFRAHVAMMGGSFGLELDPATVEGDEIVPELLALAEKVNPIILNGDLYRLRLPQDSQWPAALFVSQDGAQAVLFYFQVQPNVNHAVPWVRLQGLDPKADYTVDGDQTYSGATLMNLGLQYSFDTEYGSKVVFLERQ

| SMILES | IC50 [1] [µM] | IC50 (Alpha-galactosidase C) [µM] |
| --- | --- | --- |
| OC[C@@H]1NC[C@@H](O)[C@H](O)[C@@H]1O | 0.63 | – |
| OC[C@H]1NC[C@H](O)[C@@H](O)[C@H]1O | – | 1.8 |
